Data set [1] has as its target T1, YePEPT (Yersinia enterocolitica, UniProt A0A2R9TD79).
T1 construct: gene YEP4_02370; wild-type
T1 sequence (A0A2R9TD79 1-511): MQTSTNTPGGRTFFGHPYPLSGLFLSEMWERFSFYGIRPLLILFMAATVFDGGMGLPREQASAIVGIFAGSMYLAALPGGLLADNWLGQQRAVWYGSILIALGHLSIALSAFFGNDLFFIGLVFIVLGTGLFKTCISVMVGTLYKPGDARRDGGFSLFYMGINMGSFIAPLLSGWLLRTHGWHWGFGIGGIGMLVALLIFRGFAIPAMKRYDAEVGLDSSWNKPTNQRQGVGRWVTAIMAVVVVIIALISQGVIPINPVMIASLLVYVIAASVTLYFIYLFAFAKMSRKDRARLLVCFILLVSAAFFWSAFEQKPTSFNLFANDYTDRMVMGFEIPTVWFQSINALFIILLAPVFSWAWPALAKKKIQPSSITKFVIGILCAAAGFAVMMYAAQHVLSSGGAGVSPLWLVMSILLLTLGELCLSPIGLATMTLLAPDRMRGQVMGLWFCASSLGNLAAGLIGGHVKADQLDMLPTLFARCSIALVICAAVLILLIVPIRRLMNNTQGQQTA
The data set can be described thus: [3H]Ala-Ala uptake competition in E. coli at […]. It is filed as cell-based. Particulars: read-out: % inhibition at 5 mM.

Data set [2] concerns the target T2, YePEPT (Yersinia enterocolitica, UniProt A0A2R9TD79, F311Y/K314A).
T2 construct: gene YEP4_02370
Nature of the data set: [3H]Ala-Ala uptake competition in E. coli overexpressing the transporter; transport confirmed by SSM electrophysiology in proteoliposomes. It is filed as cell-based.

Data set [3] deals with T3, YePEPT (Yersinia enterocolitica, UniProt A0A2R9TD79, K314A).
T3 construct: gene YEP4_02370
The data set can be described thus: [3H]Ala-Ala uptake competition in E. coli at […]. In kind it is cell-based.

Data set [4] has as its target T2, YePEPT. Nature of the data set: SSM electrophysiology with proteoliposomes of purified transporter ([…]); also uptake inhibition in cells. In kind it is biochemical.
Data set [5] deals with C[C@H](N)C(=O)N[C@@H](C)C(=O)O. The data set can be described thus: radioligand uptake kinetics in E. coli; SSM electrophysiology in proteoliposomes. In kind it is cell-based, Yersinia enterocolitica.

The results in this text go back to paper PMC8390754, “Engineering and functional characterization of a proton-driven β-lactam antibiotic translocation module for bionanotechnological applications” (Scientific Reports, 2021).

By inhibition is commonly meant the relative decrease from the control value, in per cent. The term IC50 denotes the concentration that gives 50% inhibition. High values mean lower potency, low ones higher potency. In the case of `CC1(C)S[C@@H]2[C@H](NC(=O)[C@H](N)c3ccc(O)cc3)C(=O)N2[C@H]1C(=O)O` [compound 2, amoxicillin], the inhibition at 5000 µM at YePEPT [1] was around 50%. On YePEPT [2], this molecule registered a concentration for half-maximal inhibition (IC50) of 106 µM. Further, at YePEPT [3], the “[3H]Ala-Ala uptake competition in E. coli at 5 mM” value is “YePEPT^K314A (Fig. 2c) showed a strong increase in affinity for amoxicillin and cefadroxil”. For `CC1(C)S[C@@H]2[C@H](NC(=O)[C@H](N)c3ccccc3)C(=O)N2[C@H]1C(=O)O` [compound 1, ampicillin], the inhibition at 5000 µM at YePEPT [1] was around 50%. For the same molecule, the “% transported charge relative to Ala-Ala” value on YePEPT [4] was 9 % transported charge relative to Ala-Ala. The term Km denotes the concentration of substrate that gives half-maximal velocity. Consider “YePEPT (Yersinia enterocolitica subsp. palearctica YE-P4; F311Y/K314A)”, for which the Km in data set [5] amounted to 199 µM.

The molecule `CC=CC1=C(C(=O)O)N2C(=O)[C@@H](NC(=O)[C@H](N)c3ccc(O)cc3)[C@H]2SC1` [compound 7, cefprozil] showed a concentration for half-maximal inhibition (IC50) on YePEPT [2] of 32 µM. For `CC1=C(C(=O)O)N2C(=O)[C@@H](NC(=O)[C@H](N)c3ccc(O)cc3)[C@H]2SC1` [compound 6, cefadroxil], at YePEPT [2], the IC50 was found to be 229 µM. In addition, at YePEPT [3], the “[3H]Ala-Ala uptake competition in E. coli at 5 mM” value was “YePEPT^K314A (Fig. 2c) showed a strong increase in affinity for amoxicillin and cefadroxil”.
